Reference: EP4060021A1, “MIMETIC MICROBIOLOGICAL CULTURE MEDIUM AND USES THEREOF” (BIOFILM PHARMA, priority 2021, dated 2022)
Values after ≈ are worked out from the molar mass of the structure shown. Like-named read-outs stand apart in the source and are kept apart here.

Tested on: souches de S. aureus issues de prélèvements de plaies du pied infectées chez des patients diabétiques
Assay: Antibiotic susceptibility test (MIC, 96-well microplate, OD 600 nm) in wound medium of the invention (MP)
Format: cell-based
Conditions: for MIC: Staphylococcus aureus, read-out: CMI en milieu plaie MP
Source text: • La Figure 1 représente des courbes de croissance de bactéries en fonction du milieu de culture. Sur cette figure, les ordonnées correspondent au logarithme d'unités formant colonie par millilitre de milieu de culture (Log UFC/ml) et les abscisses, au temps en heure (H). La Figure 1A représente les courbes correspondant à la croissance de 2 souches de S. aureus, Newman (gauche) et SAC1 (droite), dans le milieu BHI (courbe avec indicateurs ronds) et un exemple de milieu selon l'invention (MP) (courbe avec indicateurs carrés). La Figure 1B représente les courbes correspondant à la croissance de 2 souches de P. aeruginosa, PAO1 (gauche) et PAC1 (droite), dans le milieu BHI (courbe avec indicateurs ronds) et un exemple de milieu selon l'invention (MP) (courbe avec indicateurs carrés). La Figure 1C représente les courbes correspondant à la croissance de 2 souches cliniques S. aureus SAC1 et P. aeruginosa PAC1, en coculture dans le milieu BHI (P. aeruginosa BHI ou S. aureus BHI) et un exemple de milieu selon l'invention (MP) (P. aeruginosa MP ou S. aureus MP). La mesure de différence significative, réalisée par le test de Student, entre les valeurs d'UFC/mL est exprimée, soit par (***) qui correspond à une p-value <0,001, soit par (**) qui correspond à une p-value <0,01. • La Figure 2 représente les résultats obtenus d'une détermination de l'adhésion et de la formation de biofilm par dénombrement à 24h. Sur cette figure, les ordonnées correspondent au logarithme d'unités formant colonie par millilitre de milieu de culture (Log UFC/ml). La Figure 2A représente un histogramme ou diagramme en bâton du nombre de bactéries dénombrées suite à des cultures séparées de souche S. aureus Newman (Newman), S. aureus SAC1 (SAC 1), P. aeruginosa PAO1 (PAO1) ou P. aeruginosa PAC1 (PAC1), pendant 24H dans un milieu BHI (BHI) (bâtons noirs) ou dans un exemple de milieu selon l'invention (MP) (bâtons gris). La Figure 2B montre sous forme d'histogramme le nombre de bactéries dénombrées suite à des co-cultures des souches de référence S. aureus Newman et P. aeruginosa PAO1 (PAO1/Newman), ainsi que du couple de souches cliniques S. aureus SAC1 et P. aeruginosa PAC1 (PAC 1/SAC1), pendant 24H dans un milieu BHI (BHI) (bâtons noirs) ou dans un exemple de milieu selon l'invention (MP) (bâtons gris). La mesure de différence significative, réalisée par le test de Student, entre les valeurs d'UFC est exprimée, soit par (***) qui correspond à une p-value <0,001, soit par (**) qui correspond à une p-value <0,01. • La Figure 3 représente les résultats obtenus d'une détermination de sensibilité à des antibiotiques de souches cliniques de S. aureus issues d'infections de plaies du pied chez le diabétique. Les données cliniques, anonymisées, nécessaires à l'interprétation des résultats, consistaient en l'antibiothérapie donnée au patient, ainsi que la qualification par les médecins hospitaliers d'un succès ou échec thérapeutique. La définition de succès ou échec thérapeutique est définie comme suit. Le patient commence et suit l'antibiothérapie prescrite et un deuxième prélèvement microbiologique est effectué lors du dernier jour de traitement de la 1ère antibiothérapie (± 2 jours). Ce prélèvement est utilisé pour déterminer la présence/absence du pathogène ciblé par l'antibiothérapie, S. aureus. Si ce prélèvement a montré la persistance d'un S. aureus, l'antibiothérapie est en échec. A l'inverse, en cas d'absence de S. aureus, l'antibiothérapie est associée à un succès thérapeutique. Les antibiogrammes ont été réalisés classiquement sur une durée de 18h ± 2h en accord avec les recommandations de l'EUCAST. Une gamme de l'antibiotique à tester a été réalisée. • La Figure 3A montre sous forme d'histogramme les résultats des CMI déduites d'antibiogrammes sur 11 souches testées en présence d'amoxicilline / clavulanate de potassium (commercialisé par exemple sous le nom d'Augmentin (marque déposée)).

## CCC[C@@H]1C[C@@H](C(=O)N[C@@H]([C@H]2O[C@H](SC)[C@H](O)[C@@H](O)[C@H]2O)[C@H](C)Cl)N(C)C1 [clindamycine]
Souche C01P009
  MIC: 0.25 µg/mL (≈ 0.588 µM)
  Classification (S) ou (R) en MP: (S) (valeur de CMI mesurée dans un milieu plaie, exemple de milieu selon l'invention (MP) inférieure ou égale au seuil déterminé et peuvent être classifiées comme sensibles (noté S dans le tableau 5C))
Souche C01P010
  MIC: 2 µg/mL (≈ 4.71 µM)
  Classification (S) ou (R) en MP: (R) (valeur de CMI mesurée dans un milieu plaie, exemple de milieu selon l'invention (MP), supérieure au seuil et peuvent être classifiées comme résistantes (noté R dans le tableau 5C))
Souche C03P003
  MIC: 0.25 µg/mL (≈ 0.588 µM)
  Classification (S) ou (R) en MP: (S) (valeur de CMI mesurée dans un milieu plaie, exemple de milieu selon l'invention (MP) inférieure ou égale au seuil déterminé et peuvent être classifiées comme sensibles (noté S dans le tableau 5C))
Souche C03P004
  MIC: 0.25 µg/mL (≈ 0.588 µM)
  Classification (S) ou (R) en MP: (S) (valeur de CMI mesurée dans un milieu plaie, exemple de milieu selon l'invention (MP) inférieure ou égale au seuil déterminé et peuvent être classifiées comme sensibles (noté S dans le tableau 5C))
Souche C03P005
  MIC: 1 µg/mL (≈ 2.35 µM)
  Classification (S) ou (R) en MP: (R) (valeur de CMI mesurée dans un milieu plaie, exemple de milieu selon l'invention (MP), supérieure au seuil et peuvent être classifiées comme résistantes (noté R dans le tableau 5C))
Souche C03P009
  MIC: 0.5 µg/mL (≈ 1.18 µM)
  Classification (S) ou (R) en MP: (S) (valeur de CMI mesurée dans un milieu plaie, exemple de milieu selon l'invention (MP) inférieure ou égale au seuil déterminé et peuvent être classifiées comme sensibles (noté S dans le tableau 5C))

## amoxicilline / clavulanate de potassium [amoxicilline/clavulanate de potassium]
Souche C01P012
  CMI en milieu plaie MP: 0,25 mg/L / µg/L
  Classification (S) ou (R) en MP: (S) (valeur de CMI mesurés dans l'exemple de milieu selon l'invention (MP), inférieure ou égale au seuil et ont été et peuvent être classifiées comme sensibles (noté S dans le tableau 5A))
Souche C03P001
  CMI en milieu plaie MP: 0,5 mg/L / µg/L
  Classification (S) ou (R) en MP: (S) (valeur de CMI mesurés dans l'exemple de milieu selon l'invention (MP), inférieure ou égale au seuil et ont été et peuvent être classifiées comme sensibles (noté S dans le tableau 5A))
Souche C03P008
  CMI en milieu plaie MP: 1 mg/L / µg/L
  Classification (S) ou (R) en MP: (R) (valeur de CMI mesurée dans l'exemple de milieu selon l'invention (MP) supérieure au seuil et peuvent être classifiées comme résistantes (noté R dans le tableau 5A))
Souche C04P003
  CMI en milieu plaie MP: 0,25 mg/L / µg/L
  Classification (S) ou (R) en MP: (S) (valeur de CMI mesurés dans l'exemple de milieu selon l'invention (MP), inférieure ou égale au seuil et ont été et peuvent être classifiées comme sensibles (noté S dans le tableau 5A))
Souche C04P005f
  CMI en milieu plaie MP: 0,5 mg/L / µg/L
  Classification (S) ou (R) en MP: (S) (valeur de CMI mesurés dans l'exemple de milieu selon l'invention (MP), inférieure ou égale au seuil et ont été et peuvent être classifiées comme sensibles (noté S dans le tableau 5A))
Souche C04P005i
  CMI en milieu plaie MP: 0,5 mg/L / µg/L
  Classification (S) ou (R) en MP: (S) (valeur de CMI mesurés dans l'exemple de milieu selon l'invention (MP), inférieure ou égale au seuil et ont été et peuvent être classifiées comme sensibles (noté S dans le tableau 5A))
Souche C04P007
  CMI en milieu plaie MP: 1 mg/L / µg/L
  Classification (S) ou (R) en MP: (R) (valeur de CMI mesurée dans l'exemple de milieu selon l'invention (MP) supérieure au seuil et peuvent être classifiées comme résistantes (noté R dans le tableau 5A))
Souche C06P001f
  CMI en milieu plaie MP: 2 mg/L / µg/L
  Classification (S) ou (R) en MP: (R) (valeur de CMI mesurée dans l'exemple de milieu selon l'invention (MP) supérieure au seuil et peuvent être classifiées comme résistantes (noté R dans le tableau 5A))
Souche C06P001 i
  CMI en milieu plaie MP: 4 mg/L / µg/L
  Classification (S) ou (R) en MP: (R) (valeur de CMI mesurée dans l'exemple de milieu selon l'invention (MP) supérieure au seuil et peuvent être classifiées comme résistantes (noté R dans le tableau 5A))
Souche C06P003f
  CMI en milieu plaie MP: 1 mg/L / µg/L
  Classification (S) ou (R) en MP: (R) (valeur de CMI mesurée dans l'exemple de milieu selon l'invention (MP) supérieure au seuil et peuvent être classifiées comme résistantes (noté R dans le tableau 5A))
Souche C06P003i
  CMI en milieu plaie MP: 2 mg/L / µg/L
  Classification (S) ou (R) en MP: (R) (valeur de CMI mesurée dans l'exemple de milieu selon l'invention (MP) supérieure au seuil et peuvent être classifiées comme résistantes (noté R dans le tableau 5A))

## cotrimoxazole
3 souches associées à un échec thérapeutique
  CMI dans un exemple de milieu selon l'invention (MP): 16 mg/L
Souche C01P0 01
  CMI en milieu plaie MP: 16 mg/L
  Classification (S) ou (R) en MP: (R) (valeur de CMI mesurée dans l'exemple de milieu selon l'invention supérieure au seuil et peuvent être classifiées comme résistantes (noté R dans le tableau 5B))
Souche C01P0 11
  CMI en milieu plaie MP: 8 mg/L
  Classification (S) ou (R) en MP: (S) (avantageusement inférieur au seuil et peut être classifiée comme sensible (noté S dans le tableau 5B))
Souche C03P0 02
  CMI en milieu plaie MP: 16 mg/L
  Classification (S) ou (R) en MP: (R) (valeur de CMI mesurée dans l'exemple de milieu selon l'invention supérieure au seuil et peuvent être classifiées comme résistantes (noté R dans le tableau 5B))
Souche C03P0 07
  CMI en milieu plaie MP: 16 mg/L
  Classification (S) ou (R) en MP: (R) (valeur de CMI mesurée dans l'exemple de milieu selon l'invention supérieure au seuil et peuvent être classifiées comme résistantes (noté R dans le tableau 5B))
Souche associée à un succès thérapeutique
  CMI mesurée dans un exemple de milieu selon l'invention (MP): 8 mg/L
